Test [1] deals with Jurkat cells. Nature of the test: Anti-Fas induced apoptosis in Jurkat cells, DNA fragmentation (Cell Death Detection ELISA). In kind it is cell-based. The following applies: Human Jurkat cell line/DNA fragmentation, n = 4, read-out: IC50, inhibition of apoptosis. The procedure:
Jurkat cells were obtained from LGC Standards (Teddington, UK) and were grown in RPMI 1640, 10% FCS, 2 mM L-glutamine, 100 U/ml penicillin and 0.1 mg/ml streptomycin (all from Sigma Aldrich Ltd., Poole, UK) at 37°C in 5% CO2/95% humidity. Receptor- or stress-mediated apoptosis (2 × 10^5 cells/ml) was induced by addition of either anti-Fas antibody CH-11 (10 ng/ml, Millipore UK Ltd., Watford, UK), TNF-α (20 ng/ml, R&D Systems, Abingdon, UK) with cycloheximide (112 ng/ml, Sigma Aldrich Ltd., Poole, UK) or staurosporine (350 ng/ml, Sigma Aldrich Ltd., Poole, UK). VX-166 was diluted into DMSO (10 mM), further diluted in media and added at a range of concentrations. Cells were then incubated for 18 hours. Apoptotic cells were then labelled with Cy5-conjugated Annexin-V (BD Biosciences, Oxford, UK) and detected using a FMAT™ 8100 Fluorimetric Microassay Technology Reader (Applied Biosystems, Warrington, UK). For the experiments using anti-Fas antibody, apoptosis was additionally measured using a Cell Death Detection ELISA kit (Roche Diagnostics Ltd., Lewes, UK) following the manufacturer's instructions.
On the technique in general: In an ELISA, binding on a coated surface is turned into a signal by an enzyme label.

The target of test [2] is T1, cathepsin B (Homo sapiens, UniProt P07858).
T1 construct: purchased Merck Biosciences Ltd. (Nottingham, UK)
Nature of the test: Cathepsin B counter-screen. Format: biochemical. To be noted: highest concentration tested. On the procedure:
Active recombinant caspase-1, -3, -4, -7 and -8 were prepared as described previously. Caspase-2 was purchased from Biomol (Exeter, UK), caspase-6 from BD Biosciences (Oxford, UK), caspase-9 from Europa Bioproducts Ltd. (Cambridge, UK) and caspase-10 from Chemicon International Inc. (Harrow, UK). Cathepsin B and granzyme B were purchased from Merck Biosciences Ltd. (Nottingham, UK). Fluorogenic protease substrates were purchased from Bachem Ltd. (St. Helens, UK). All reactions were carried out at 37°C using a Molecular Devices (Wokingham, UK) Gemini plate-reader at 460 nm (excitation wavelength of 390 nm). Caspase inhibition assays were conducted, with minor modifications, as described by Margolin and colleagues. Irreversible kinetics were analysed by calculations of second-order inactivation rate constants (k) using GraphPad (La Jolla, CA, USA) Prism 4.0 software. A larger number for an inactivation rate constant indicates a greater degree of inactivation. To determine the inhibitory effect on cathepsin B, 4.25 nM of the enzyme were added to 250 μM z-RR-AMC in 10 mM 2-morpholino-ethanesulfonic acid pH 6.0, 1 mM DTT, 1 mM EDTA and 0.03% Brij35 in the presence or absence of VX-166 and the reaction monitored continuously over 15 minutes. Granzyme B was assayed, with minor modifications, as described by Thornberry and colleagues. […]

The test system of test [3] is IL-1β. Nature of the test: CLP rat, plasma IL-1β by ELISA. Format: in vivo. The following applies: 20 hours, 25 mg/ml pump, n = 10, P < 0.05. The procedure: CLP studies were performed in accordance with the National Institutes of Health guidelines for the use of experimental animals and were approved by the Institutional Animal Care and Use Committee of the Feinstein Institute for Medical Research. Adult male Sprague-Dawley rats (weighing 275 to 325 g, Charles River Laboratories, Wilmington, MA, USA) were fasted overnight then anaesthetised with isoflurane. The caecum was exposed via a 2 cm midline incision. It was ligated just distal to the ileocaecal valve, then punctured twice with an 18-gauge needle and gently squeezed to release a small amount of faecal material to ensure patency of the perforation sites before the abdominal incision was closed. Sham-operated rats underwent the same procedure with the exception that the caecum was neither ligated nor punctured. […]
Blood samples were centrifuged at 1500 g for 15 minutes at 4°C, the plasma was removed and stored at -80°C until analysis. Plasma IL-1β levels were determined by ELISA (R&D Systems Inc., Minneapolis, MN, USA) following the manufacturer's instructions. Plasma endotoxin levels were determined using a Limulus amebocyte lysate (LAL) kit (Associates of Cape Cod, Inc., East Falmouth, MA, USA) according to the manufacturer's instruction. […] The optical density was determined at 405 nm using a spectrophotometer. The levels of endotoxin were then calculated and expressed as EU/ml.

As usually defined, the IC50 is the point on the concentration scale where inhibition reaches its midpoint. As a reminder, the inhibition is the percentage by which the read-out fell short of the control. Read a low inhibition as a response near the control. For the molecule `CCC(C(=O)NC(CC(=O)O)C(=O)COc1c(F)c(F)cc(F)c1F)n1cccc(NC(=O)OC)c1=O` (stereo not drawn) [VX-166], in test [1], the IC50 is 45 ± 7 nM. The molecule also registered an inhibition at 50 µM in test [2] of 19%. The “plasma IL-1β level vs vehicle CLP” value in test [3] was “significant reduction”.

The values are drawn from publication PMC2784364, “VX-166: a novel potent small molecule caspase inhibitor as a potential therapy for sepsis” (Critical Care, 2009).
